Results on nine compounds are retold here after PubChem BioAssay (NCI).

Test systems include SK-OV-3 ovarian; T-47D breast; SF-539 CNS; SF-268 CNS; MDA-MB-231 breast; HT29 colon; UACC-62 melanoma; OVCAR-8 ovarian; M14 melanoma; ACHN renal; BT-549 breast; K-562 leukemia; OVCAR-5 ovarian; SNB-75 CNS; NCI-H522 lung; HCT-15 colon; SR leukemia.
Test in all cases: NCI anticancer screen, dose series, 48 h

Each structure is given as a SMILES string.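 All cell lines were grown in 96-well plates and treated with compound for 48 hours. TGI is the concentration that stops growth completely.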 A value given as a limit tells only on which side of the number the result lay.

For the compound `CC(=O)C1=C(C)N2C(=NC3=C(CCc4ccccc43)C2c2ccc(F)cc2)S1` (stereo not given), the TGI in the assay with SK-OV-3 ovarian, in the assay on T-47D breast, with SF-539 CNS, with SF-268 CNS, in the assay on MDA-MB-231 breast and with HT29 colon was over 100 µM in each case. Also, the TGI was over 100 µM in the assay with UACC-62 melanoma; over 100 µM in the assay with OVCAR-8 ovarian; over 100 µM in the assay with M14 melanoma; over 100 µM with ACHN renal; over 100 µM in the assay on BT-549 breast; 90.4 µM in the assay on K-562 leukemia. Further, the TGI in the assay on OVCAR-5 ovarian and with SNB-75 CNS was over 100 µM throughout.

As to `N#CC(C(=O)c1cccnc1Cl)c1nc2cc(C(F)(F)F)ccc2s1` (stereo not given), the TGI in the assay on NCI-H522 lung was 61.4 µM; in the assay with SK-OV-3 ovarian it was over 100 µM; with T-47D breast, over 100 µM; in the assay with SF-539 CNS it was over 100 µM; with HCT-15 colon it was over 100 µM; in the assay with SF-268 CNS, over 100 µM. Besides, the TGI in the assay on MDA-MB-231 breast, with HT29 colon, in the assay with OVCAR-8 ovarian, with M14 melanoma, in the assay on ACHN renal and in the assay with BT-549 breast was over 100 µM each time. The TGI with K-562 leukemia, in the assay on OVCAR-5 ovarian and with SNB-75 CNS was over 100 µM each time.

Take `CC[C@H](C)[C@H]1NC(=O)[C@@H](NC(=O)[C@@H](CC(C)C)N(C)C(=O)C2CCCN2C(=O)[C@H](C)O)[C@@H](C)OC(=O)[C@H](Cc2ccc(OC)cc2)N(C)C(=O)[C@@H]2CCCN2C(=O)[C@H](CCCCNC(=O)OCc2ccccc2)NC(=O)[C@H](C)C(=O)[C@H](C(C)C)OC(=O)C[C@@H]1O` (stereo not given in full): the TGI in the assay on NCI-H522 lung, in the assay with SK-OV-3 ovarian, in the assay on T-47D breast, in the assay with SF-539 CNS, in the assay with HCT-15 colon and in the assay on SF-268 CNS was over 25 µM in each case. Also, the TGI is over 25 µM in the assay with SR leukemia; 16.4 µM with HT29 colon; over 25 µM with UACC-62 melanoma; over 25 µM in the assay on OVCAR-8 ovarian; over 25 µM in the assay with M14 melanoma; over 25 µM in the assay on ACHN renal. The TGI in the assay on BT-549 breast, in the assay on K-562 leukemia and in the assay on OVCAR-5 ovarian was over 25 µM in each case.

With `CCOC(=O)c1c[nH]c2c(Sc3ccccc3)nccc2c1=O`, the TGI in the assay on NCI-H522 lung was 74 µM; in the assay with SK-OV-3 ovarian, over 100 µM; in the assay with T-47D breast it was over 100 µM; in the assay with SF-539 CNS, over 100 µM; in the assay with HCT-15 colon it was over 100 µM; with SF-268 CNS, over 100 µM. For the same compound, the TGI in the assay on MDA-MB-231 breast, in the assay on HT29 colon, in the assay with UACC-62 melanoma, with OVCAR-8 ovarian, in the assay on M14 melanoma and in the assay with ACHN renal was over 100 µM throughout. Further, the TGI with BT-549 breast, in the assay with OVCAR-5 ovarian and in the assay on SNB-75 CNS was over 100 µM each time.

With `CC1=CC(=O)CC(C)(C)C1/C=C/C(C)=C/C=C/C(C)=C/C=C/C=C(C)/C=C/C=C(C)/C=C/C1C(C)=CC(=O)CC1(C)C` (stereo not given), the TGI was 52.1 µM with NCI-H522 lung; over 100 µM in the assay on SK-OV-3 ovarian; over 100 µM in the assay on T-47D breast; over 100 µM in the assay on SF-539 CNS; 85 µM with HCT-15 colon; over 100 µM with SF-268 CNS. Further, the TGI with SR leukemia was over 100 µM; in the assay with MDA-MB-231 breast it was over 100 µM; in the assay on HT29 colon it was over 100 µM; in the assay on OVCAR-8 ovarian it was 49 µM; with M14 melanoma, over 100 µM; with ACHN renal, over 100 µM. The TGI in the assay on K-562 leukemia and in the assay on OVCAR-5 ovarian was over 100 µM each time.

For the compound `CNNC1=NS(=O)(=O)c2cc(C#N)c(Cl)cc2S1`, the TGI with NCI-H522 lung, with SK-OV-3 ovarian, in the assay with T-47D breast, in the assay on SF-539 CNS, in the assay with HCT-15 colon and in the assay with SF-268 CNS was over 10 µM each time. For the same compound, the TGI with MDA-MB-231 breast, in the assay on HT29 colon, in the assay on UACC-62 melanoma, with OVCAR-8 ovarian, with M14 melanoma and with ACHN renal was over 10 µM in each case. Also, the TGI in the assay with BT-549 breast, in the assay with K-562 leukemia, in the assay with OVCAR-5 ovarian and in the assay with SNB-75 CNS was over 10 µM each time.

`COc1ccc(N=NC(=O)NC(Cc2ccccc2)C(=O)O)cc1` (stereo not given): the TGI in the assay on NCI-H522 lung, with T-47D breast, with SF-539 CNS, with HCT-15 colon, in the assay on SF-268 CNS and in the assay on SR leukemia was over 100 µM in each case. For the same compound, the TGI in the assay on HT29 colon, in the assay on UACC-62 melanoma, in the assay with OVCAR-8 ovarian, in the assay with M14 melanoma, in the assay on ACHN renal and in the assay with BT-549 breast was over 100 µM each time. Also, the TGI with K-562 leukemia, in the assay with OVCAR-5 ovarian and with SNB-75 CNS was over 100 µM throughout.

Turning to `CCCNC(=S)/N=C/c1c(O)cc(C)oc1=O`, the TGI in the assay on SK-OV-3 ovarian, with T-47D breast, in the assay with SF-539 CNS, with HCT-15 colon, with MDA-MB-231 breast and in the assay with HT29 colon was over 100 µM throughout. The TGI in the assay with UACC-62 melanoma, with OVCAR-8 ovarian, in the assay with M14 melanoma, with ACHN renal, in the assay with BT-549 breast and in the assay on OVCAR-5 ovarian was over 100 µM each time. The TGI with SNB-75 CNS was over 100 µM.

Regarding `COc1cc(NS(C)(=O)=O)ccc1Nc1cc[nH]c2ccc3nccc3c12`, the TGI in the assay with NCI-H522 lung is 22.6 µM; in the assay with T-47D breast it was 33.2 µM; in the assay on HCT-15 colon it was over 100 µM; in the assay with SF-268 CNS, 25 µM; with MDA-MB-231 breast, 25 µM; in the assay on HT29 colon it was 31.3 µM. The TGI amounted to 32.5 µM in the assay with UACC-62 melanoma; 28.8 µM in the assay with OVCAR-8 ovarian; 32.2 µM in the assay on M14 melanoma; 32.8 µM in the assay on ACHN renal; 28.7 µM in the assay on BT-549 breast; 25.7 µM with K-562 leukemia. The TGI with OVCAR-5 ovarian stood at 30.8 µM.
